{
  "source": "patent US20030104946A1",
  "about": "“Herbicidal mixture comprising a benzoyl derivative, a fertilizer containing nitrogen and an adjuvant” (priority 2001, published 2003)",
  "key": {"ZEAMA (Maize)": {"system": "ZEAMA (Maize)", "experiment": "Weed control postemergence in maize under field conditions, outdoor pot trial (Example 4)", "assay_type": "in vivo", "details": "Tables 5 and 6", "from_the_text": "Seeds of various crop and weed species were planted in a sandy-loamy soil and placed in a climate chamber in a greenhouse under good growth conditions. Four weeks after sowing, the plants were sprayed with a tank mixture containing the formulated test compound at a spray rate of 300 l/ha of spray solution. The plants were visually assessed fourteen days after application, and the percentage control of the plants is shown in Tables 1 and 2.\nUsing the method of Example 1 but in an outdoor pot trial in the field there were obtained the following results shown in Tables 5, 6 and 7. […]"}, "[1]": {"system": "ORYSP (Transplanted Paddy Rice)", "experiment": "Effect on weeds in rice by water application (Example 3)", "assay_type": "in vivo", "details": "mixtures of Table 4", "from_the_text": "Seeds of the various weed species and rice were planted in a sandy-loamy soil in a greenhouse under good growth conditions. Three weeks after sowing the tank mixture containing the formulated test compound was applied to the plants submerged in the paddy water. The plants were visually assessed three weeks after application, and the percentage control of the plants is-shown in Table 4 in comparison with untreated controls."}},
  "data": [
    {"molecule": "CCS(=O)(=O)c1ccc(C(=O)C2C(=O)CCCC2=O)c(Cl)c1C1=NOC(CC#N)C1", "note": "(centres unmarked) [B2, 2-[2-chloro-3-(5-cyanomethylisoxazolin-3-yl)-4-ethylsulfonylbenzoyl]cyclohexane-1,3-dione]", "values": [
      {"measurement": "maize damage", "setting": "ZEAMA (Maize)", "value": "No maize damage was observed"},
      {"measurement": "rice damage", "setting": "[1]", "value": "No rice damage was observed"}
    ]}
  ]
}
